Data reported in patent US11091510B2, “Crystal characteristics, preparation processes and anticancer applications of 17beta-neriifolin crystal forms” (EnKang Pharmaceuticals (Guangzhou), Ltd., priority 2017, dated 2021).

System: Human gastric cancer cells MGC-803
Assay: In vivo efficacy test of 17bNF Crystal Form 0 and Form II, MGC-803 xenograft in nude mice
Conditions: oral, once a day, six times every week until the 15th day; start at average tumor volume 1450 mm^3; FIG. 42A-C
Method: Human gastric cancer cells MGC-803 were subcutaneously planted into the armpit of nude mice. The test drugs 17bNF-0 and 17bNF-II were separately administrated orally when the average tumor volume reached 1450 mm^3. Drugs were given once a day, six times every week until the 15th day. CMC (drug-carrier; 0.5%) was used as the blank control. Tumor volumes were measured once about every three days (FIG. 42A), and the nude mice were photographed on the 22th day (FIG. 42B), and the nude mice were sacrificed on the 22th day. The tumors were dissected out from the nude mice and photographed (FIG. 42C).

**Q.** `COC1C(O)[C@H](O[C@H]2CC[C@@]3(C)[C@H](CC[C@@H]4[C@@H]3CC[C@]3(C)[C@@H](C5=CC(=O)OC5)CC[C@]43O)C2)OC(C)[C@@H]1O` (stereo partly drawn) [17bNF-0, (3β, 5β)-3-[(6-deoxy-3-O-methyl-α-L-glucopyranosyl)oxy]-14-hydroxycard-20(22)-enolide] was tested. Which “anticancer activities in nude mice (tumor volume)” value did it give?
**A.** Its value is “very high anticancer activities”.
